From publication PMC10799935, “Discovery of a peripheral 5HT2A antagonist as a clinical candidate for metabolic dysfunction-associated steatohepatitis” (Nature Communications, 2024)
Like-named read-outs stand apart in the source and are kept apart here.

What was measured:
5HT7 (h) = biological target: T1, 5HT7 (h) (Homo sapiens, UniProt P34969); assay: 5HT subtype antagonism assay (Eurofins Cerep): 5HT7; type: cell-based
T1 construct: host or cells: CHO cells
Experimental: The derivatives were evaluated at a concentration of 1 μM for their antagonist activity on the 5HT2A receptor (Tables 1–3)[33],[34]. Human 5HT2A stably transfected HEK293 cells (a type of cell derived from kidney embryos)[20] were seeded in a 96-well plate (Costar; 3603) at a density of 9 × 10^4 in 100 μL of minimum essential medium (Welgene; LM007-86) containing 10% dialyzed fetal bovine serum (Gibco; 30067–334) and 1% penicillin/streptomycin (Gibco; 15140-122) and kept in a 37 °C incubator for 24 h. The cells were stained with 100 μL of cytosolic calcium dye using the FLIPR calcium 6 assay solution (Molecular devices, #R8190) supplemented with 2.5 mM probenecid (Sigma; P8761) and incubated for 1 h at 37 °C. After 1 h, the designated amount of the compound was treated in each well and incubated for another 1 h at 37 °C. Then, the cells were loaded in a Flexstation 3 microplate reader (Molecular Devices; FlexStaion) and 50 μL of 5 μM 5HT (serotonin hydrochloride, Sigma; H9523) was injected from a source plate (Nunc 96-well polystyrene conical bottom MicroWell Plate, Thermo; 249662) and the fluorescence intensity (Ex/Em-485nm/ 525 nm) was measured. […]
Antagonism assay Source Stimulus Incubation Measured Detection Method […]

[1] = Hepatocyte stability test, monkey; type: in vitro ADME, cynomolgus monkey; settings: male, cryopreserved hepatocytes, pH 7.4, read-out: Hepatocyte stability (% remaining after 3 h)
Experimental: Hepatocyte incubations for the test compound (10 μM final concentration, n = 2 per each time point) were carried out in mouse, rat, dog, monkey and human cryopreserved hepatocytes, resuspended at a density of 0.5 million cells/ml of modified Krebs-Henseleit buffer (KHB). The information regarding the hepatocytes used in the experiment is as follows: liverPool® 10-donor mixed gender human (BioIVT, Cat.No. X008001, lot EAV), male cynomolgus monkey (BioIVT, Cat.No. M00305, lot COJ), male Beagle dog (BioIVT, Cat.No. M00205, lot USY), male Sprague Dawley rat (BioIVT, Cat.No. M00005, lot TQE) and male CD1 mouse (BioIVT, Cat.No.005052, lot LFF). In addition, the compound was also incubated with blank KHB. The final concentration of solvent (DMSO) was 0.1% of the final volume. The incubations were performed for 3 hours at 37°C and pH 7.4. Reactions were terminated at 0 and 180 minutes by the addition of 3 volumes of stop solution (acetonitrile/methanol (2:1, v/v) containing internal standard–diclofenac at 100 ng/ml). Samples (compound spiked buffer and compound spiked hepatocytes, as well as blank samples, i.e. hepatocytes with the same DMSO%) were then centrifuged and aliquots were transferred to 96-deep micronic tubes and frozen at -80 °C until LC-MS/MS analysis. […]

[2] = Pharmacokinetic study in rats; type: in vivo, Sprague-Dawley rats; settings: rat
Experimental: The experimental protocol for this study was approved by the IACUC of KPC Co., Ltd. (No. KPC IACUC-P203046; Beagle dogs) or QuBEST BIO (No.QBIACUC-A20131). All relevant ethical guidelines were followed. Beagle male dogs (11 ~ 20 months old) were purchased from ORIENT BIO Inc. and were housed in the barrier animal facility of KPC Co., Ltd. under a regular light-dark cycle (12-hour light/12-hour dark) at 21.1–23.4°C with 55.3–72.2% humidity. Food (standard irradiated pelleted commercial laboratory diet, Cargill Agri Purina, 300 g/dog.day) and water were provided ad libitum. All study dogs were returned to the laboratory colony after the study without any euthanasia. Sprague-Dawley male rats (7 weeks old) were purchased from SAMTAKOBIOKOREA, Inc. and were housed in the barrier animal facility of Nonclinical Research Center, QuBEST BIO under a regular light-dark cycle (12-hour light/12-hour dark) at 19.7–22.7°C with 54.5–65.6% humidity. Food (standard irradiated pelleted commercial laboratory diet, Purina Rodent Chow, 38057) and water were provided ad libitum. All study rats were euthanized by CO2 gas upon study completion.
Blood samples were collected at the scheduled times up to 24 h post-dose (IV: 0.083, 0.25, 0.5, 1, 2, 4, 8, 12 and 24 h post-dose, PO: 0.25, 0.5, 1, 2, 4, 8, 12 and 24 h post-dose). Determination of compound 11c in plasma was performed by UHPLC-MS/MS. Pharmacokinetic parameters were calculated by noncompartmental analysis using Phoenix® WinNonlin® (Ver. 8.3‘, Certara).

in vitro = settings: African green monkey
5HT2A = 5HT2A (Homo sapiens, UniProt P28223); assay: 5HT subtype antagonism assay (selectivity panel): 5HT2A; settings: concentration not given
Sequence of 5HT2A (P28223 whole entry): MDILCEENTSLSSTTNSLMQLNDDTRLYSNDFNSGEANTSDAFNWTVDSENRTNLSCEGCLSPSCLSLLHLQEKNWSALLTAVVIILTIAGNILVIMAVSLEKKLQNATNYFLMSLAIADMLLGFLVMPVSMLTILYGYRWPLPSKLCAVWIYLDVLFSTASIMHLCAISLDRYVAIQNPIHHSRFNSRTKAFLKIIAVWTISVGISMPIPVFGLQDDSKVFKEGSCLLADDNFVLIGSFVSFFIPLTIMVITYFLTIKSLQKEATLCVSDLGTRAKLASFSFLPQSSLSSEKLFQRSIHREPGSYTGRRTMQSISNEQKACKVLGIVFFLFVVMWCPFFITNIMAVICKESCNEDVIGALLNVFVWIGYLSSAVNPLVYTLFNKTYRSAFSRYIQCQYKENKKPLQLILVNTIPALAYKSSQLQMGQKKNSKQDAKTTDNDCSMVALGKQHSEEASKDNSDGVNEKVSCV

[3] = male, Sprague-Dawley, plasma, 5 mg/kg, IV (5 mpk)

T1 sequence (P34969 whole entry): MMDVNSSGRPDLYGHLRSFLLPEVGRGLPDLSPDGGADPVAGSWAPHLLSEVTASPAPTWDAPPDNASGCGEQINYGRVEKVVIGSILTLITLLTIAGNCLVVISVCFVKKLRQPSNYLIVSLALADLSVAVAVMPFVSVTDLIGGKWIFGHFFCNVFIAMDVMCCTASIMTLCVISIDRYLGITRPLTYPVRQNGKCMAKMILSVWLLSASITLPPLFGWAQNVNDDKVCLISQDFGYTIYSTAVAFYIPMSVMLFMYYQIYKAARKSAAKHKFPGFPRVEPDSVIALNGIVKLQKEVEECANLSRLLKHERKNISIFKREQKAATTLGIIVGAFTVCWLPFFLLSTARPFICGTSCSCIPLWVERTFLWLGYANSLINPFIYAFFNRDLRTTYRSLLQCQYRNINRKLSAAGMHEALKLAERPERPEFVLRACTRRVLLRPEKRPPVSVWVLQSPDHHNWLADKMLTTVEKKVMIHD

In the case of `Cc1nc2n(c(=O)c1CCN1CCC(=C3c4ccc(Cl)cc4CCc4cccnc43)CC1)CCCC2O` (centres unmarked) [Compound 11c], the “Selectivity 7: % inhibition” value (5HT7 (h); concentration not given) is reported as 91%, the IC50 (5HT7 (h); read-out: Selectivity 7: IC50) is reported as 100 nM and the remaining at 3 h, 10 μM [1] is reported as 84.6%. For the same compound, the AUC [2, 3] was 1550 ng·h/mL, the clearance [2, 3] was 47 mL/min/kg and the AUC ([2]; male, Sprague-Dawley, plasma, 5 mg/kg, PO (5 mpk)) was 980 ng·h/mL. The bioavailability ([2]; male, Sprague-Dawley, plasma, 5 mg/kg, PO (5 mpk), read-out: F (%)) was 63%, the AUC ([2]; male, Sprague-Dawley, plasma, 10 mg/kg, PO (10 mpk)) was 2880 ng·h/mL and the bioavailability ([2]; male, Sprague-Dawley, plasma, 10 mg/kg, PO (10 mpk), read-out: F (%)) was 92.5%. For the same compound, the half-life ([2]; male, Sprague-Dawley, plasma, iv, 5 mg/kg, IV (5 mpk)) was 4.14 h, the half-life ([2]; male, Sprague-Dawley, plasma, po, 5 mg/kg, PO (5 mpk)) was 2.5 h and the half-life ([2]; male, Sprague-Dawley, plasma, po, 10 mg/kg, PO (10 mpk)) was 2.7 h. For the same compound, the bioavailability ([2]; male, Sprague-Dawley, plasma, po, rats (summary statement), read-out: oral bioavailability) was > 60%, the “V” value ([2]; IV (5 mpk)) was 8.86 L/kg and the “T1/2” value ([2]; IV (5 mpk), 5 mg/kg) was 4.4 h. For the same compound, the IC50 (in vitro) was > 100000 nM and the “Selectivity 2 A: % inhibition” value (5HT2A) was 102%.
